These results are taken from ChEMBL document CHEMBL2029335, “Synthesis, X-ray analysis, and biological evaluation of a new class of stereopure lactam-based HIV-1 protease inhibitors” (J Med Chem, 2012).

The structures appear in SMILES notation.

One series deals with Protease (Human immunodeficiency virus 1, UniProt Q9YQ12). The series is described as follows: Inhibition of HIV1 protease expressed in Escherichia coli using DABCYL-Abu-Ser-Gln-ASN-Tyr-Pro-Ile-Val-Gln-EDANS as substrate preincubated for 20 mins measured for 45 mins by fluorometry.
Sequence of Protease (Q9YQ12 whole entry): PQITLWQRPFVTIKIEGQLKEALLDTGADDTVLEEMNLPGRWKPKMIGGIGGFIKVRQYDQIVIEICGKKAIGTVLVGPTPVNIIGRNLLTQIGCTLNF
Series [1] relates to Human immunodeficiency virus 1. Briefly: Antiviral activity against HIV1 infected in human MT4 cells. In kind it is functional, organism-based. The settings on record: Human immunodeficiency virus 1, MT4.
In the next series the test system is MT4. Briefly: Cytotoxicity against human MT4 cells after 5 days by XTT assay. Type of series: cell-based. As to conditions: mt4, 120 h. (In general: Tetrazolium dyes change colour on reduction, which living cells bring about.)
A further series relates to Caco-2. The series is described as follows: Apparent permeability from apical to basolateral side in human Caco2 cells after 60 mins. As to conditions: caco-2, 1 h. Type of series: ADME, cell-based. On the technique in general: Caco-2 cells form a polarised layer with tight junctions and transporters.
The test system of another series is Liver microsomes. Briefly: (§1) Intrinsic clearance in human liver microsomes at 1 uM after 30 mins by LC-MS/MS analysis. In kind it is ADME, Microsome. The settings on record: microsomes, 0.5 h, 1 µM.
Series [2] is described as follows: as §1. The settings on record: liver microsomes, read-out: CLH. In kind it is ADME, Microsome. Background: Liver microsomes are a subcellular fraction often used to study metabolism.

What is called Ki is a measure of affinity in units of concentration, obtained from inhibition or displacement. Lower therefore signals a stronger hold on the target. As usually defined, the EC50 is the concentration giving half of the maximal effect. A higher EC50 goes with a need for much substance. What is called CC50 is the concentration at which the toxic effect on the cells reaches its halfway point. Low readings indicate harm at low concentration, high ones better tolerance by the cells. Broadly, the Papp is the rate of passage across a membrane or cell layer, normalised by area and donor concentration. For `COC(=O)N[C@H](C(=O)NN(CCC[C@@]1(Cc2ccccc2)C(=O)N([C@H]2c3ccccc3C[C@H]2O)C[C@H]1O)Cc1ccc(-c2cccnc2)cc1)C(C)(C)C`, the Ki at Protease came to 5.3 nM. This compound also returned a concentration for a half-maximal effect (EC50) in series [1] of 1800 nM. Also, half-maximal cytotoxicity in the series with MT4 (CC50) was put at 23000 nM. For the same compound, the Papp with Caco-2 turned out to be 4.4 ×10⁻⁶ cm/s. Moreover, in the series with Liver microsomes, the CLH stood at 122 µL/min/mg.
`COC(=O)N[C@H](C(=O)NN(CC[C@@]1(Cc2ccccc2)C(=O)N([C@H]2c3ccccc3C[C@H]2O)C[C@@H]1O)Cc1ccc(Br)cc1)C(C)(C)C` showed a Ki at Protease of 6.4 nM. Moreover, the 50% effective concentration (EC50) in series [1] came out at 350 nM. Moreover, the Papp in the series on Caco-2 amounted to 17 ×10⁻⁶ cm/s.
As to `COC(=O)N[C@H](C(=O)NN(CC[C@]1(Cc2ccccc2)C(=O)N([C@H]2c3ccccc3C[C@H]2O)C[C@@H]1O)Cc1ccc(Br)cc1)C(C)(C)C`, at Protease, the affinity, expressed as Ki, was 940 nM. Further, the EC50 in series [1] is above 10000 nM.
Take `COC(=O)N[C@H](C(=O)NN(CCC[C@@]1(Cc2ccccc2)C(=O)N([C@H]2c3ccccc3C[C@H]2O)C[C@H]1O)Cc1ccc(-c2ccccn2)cc1)C(C)(C)C`: at Protease, the affinity, expressed as Ki, was 6.3 nM. This compound also showed a concentration for a half-maximal effect (EC50) in series [1] of 2500 nM. Further, in the series on MT4, the CC50 came to 31000 nM. Besides, the apparent permeability coefficient (Papp) in the series with Caco-2 was 3.4 ×10⁻⁶ cm/s. The CLH in the series with Liver microsomes is 130 µL/min/mg.
`COC(=O)N[C@H](C(=O)NN(CC[C@@]1(Cc2ccccc2)C(=O)N([C@H]2c3ccccc3C[C@H]2O[Si](C)(C)C(C)(C)C)C[C@@H]1O[Si](C)(C)C(C)(C)C)Cc1ccc(Br)cc1)C(C)(C)C` displayed a Ki on Protease of 800 nM. In series [1], this compound showed an EC50 above 10000 nM.
With `COC(=O)N[C@H](C(=O)NN(CC[C@@]1(Cc2ccccc2)C(=O)N([C@H]2c3ccccc3C[C@H]2O)C[C@H]1O)Cc1ccc(Br)cc1)C(C)(C)C`, the affinity on Protease, expressed as Ki, was 2.1 nM. The EC50 in series [1] was found to be 640 nM. The CC50 in the series with MT4 is above 50000 nM. In the series with Liver microsomes, this compound yielded a CLH above 300 µL/min/mg.
The compound `COC(=O)N[C@H](C(=O)NN(CC[C@@]1(Cc2ccccc2)C(=O)N([C@H]2c3ccccc3C[C@H]2O)C[C@@H]1O)Cc1ccc(-c2cccnc2)cc1)C(C)(C)C` came in with a Ki at Protease of 0.7 nM. The same compound yielded an EC50 in series [1] of 100 nM. The apparent permeability (Papp) with Caco-2 was 5.1 ×10⁻⁶ cm/s. Besides, the CLH in the series with Liver microsomes came out at 120 µL/min/mg.
The compound `COC(=O)N[C@H](C(=O)NN(CCC[C@@]1(Cc2ccccc2)C(=O)N([C@H]2c3ccccc3C[C@H]2O)C[C@H]1O)Cc1ccc(Br)cc1)C(C)(C)C` registered an inhibitory constant (Ki) on Protease of 13 nM. In series [1], this compound had an EC50 of 3900 nM. Besides, in the series on MT4, the cytotoxic concentration (CC50) was 26000 nM. In the series on Caco-2, the Papp is 22 ×10⁻⁶ cm/s. In addition, the CLH in the series on Liver microsomes is above 300 µL/min/mg.
With `COC(=O)N[C@H](C(=O)N[C@@H](Cc1ccccc1)[C@@H](O)CN(Cc1ccc(-c2ccccn2)cc1)NC(=O)[C@@H](NC(=O)OC)C(C)(C)C)C(C)(C)C` [ATAZANAVIR], the EC50 in series [1] is 3.9 nM. Moreover, the microsomal CLint at 1 µM in series [2] was found to be 90 µL/min/mg.
Turning to `COC(=O)N[C@H](C(=O)NN(CC[C@@]1(Cc2ccccc2)C(=O)N([C@H]2c3ccccc3C[C@H]2O)C[C@H]1O)Cc1ccc(-c2ccncc2)cc1)C(C)(C)C`, the Ki at Protease came out at 0.4 nM. Moreover, in series [1], the half-maximal effective concentration (EC50) is 40 nM. Further, the CC50 in the series on MT4 is above 50000 nM.
Take `COC(=O)N[C@H](C(=O)NN(CC[C@@]1(Cc2ccccc2)C(=O)N([C@H]2c3ccccc3C[C@H]2O)C[C@@H]1O)Cc1ccc(-c2ccccn2)cc1)C(C)(C)C`: on Protease, the Ki is 2 nM. Besides, in series [1], the 50% effective concentration (EC50) was determined as 180 nM. In the series with MT4, this compound yielded a cytotoxic concentration (CC50) above 50000 nM.
The corresponding values for `COC(=O)N[C@H](C(=O)NN(CC[C@@]1(Cc2ccccc2)C(=O)N([C@H]2c3ccccc3C[C@H]2O[Si](C)(C)C(C)(C)C)C[C@H]1O[Si](C)(C)C(C)(C)C)Cc1ccc(Br)cc1)C(C)(C)C` are 760 nM, above 10000 nM and above 50000 nM.
Turning to `COC(=O)N[C@H](C(=O)NN(CC[C@@]1(Cc2ccccc2)C(=O)N([C@H]2c3ccccc3C[C@H]2O)C[C@@H]1O)Cc1ccc(-c2ccncc2)cc1)C(C)(C)C`, at Protease, the Ki was 1.7 nM. Further, the concentration giving a half-maximal response (EC50) in series [1] came out at 96 nM.
On to `COC(=O)N[C@H](C(=O)NN(CCC1(Cc2ccccc2)C(=O)N([C@H]2c3ccccc3C[C@H]2O)CC1O)Cc1ccc(-c2ccncc2)cc1)C(C)(C)C` (stereo not given in full), for which the Ki on Protease was determined as 0.8 nM.
Consider `COC(=O)N[C@H](C(=O)NN(CCC[C@@]1(Cc2ccccc2)C(=O)N([C@H]2c3ccccc3C[C@H]2O)C[C@H]1O)Cc1ccc(-c2ccncc2)cc1)C(C)(C)C`, for which it took 700 nM to reach a half-maximal effect in series [1] (EC50). The cytotoxic concentration (CC50) in the series with MT4 was 5900 nM.
Consider `COC(=O)N[C@H](C(=O)NN(CC[C@@]1(Cc2ccccc2)C(=O)N([C@H]2c3ccccc3C[C@H]2O)C[C@H]1O)Cc1ccc(-c2ccccn2)cc1)C(C)(C)C`, for which the affinity at Protease, expressed as Ki, was 1.7 nM. Besides, in series [1], the concentration for a half-maximal effect (EC50) came out at 190 nM. For the same compound, the half-maximal cytotoxic concentration (CC50) in the series on MT4 came to 28000 nM.
`COC(=O)N[C@H](C(=O)NN(CC[C@@]1(Cc2ccccc2)C(=O)N([C@H]2c3ccccc3C[C@H]2O)C[C@H]1O)Cc1ccc(-c2cccnc2)cc1)C(C)(C)C` displayed a Ki on Protease of 0.8 nM. In series [1], this compound yielded a 50% effective concentration (EC50) of 40 nM. In the series with MT4, this compound gave a CC50 above 50000 nM. Also, in the series with Caco-2, the Papp was determined as 3.8 ×10⁻⁶ cm/s. In the series with Liver microsomes, this compound showed a CLH of 230 µL/min/mg.
Regarding `COC(=O)N[C@H](C(=O)NN(CC[C@]1(Cc2ccccc2)C(=O)N([C@H]2c3ccccc3C[C@H]2O)C[C@H]1O)Cc1ccc(Br)cc1)C(C)(C)C`, on Protease, affinity was put at a Ki of 1200 nM. Further, the 50% effective concentration (EC50) in series [1] is above 10000 nM. This compound also displayed a CC50 in the series on MT4 of 15000 nM.
In turn, `COC(=O)N[C@H](C(=O)NN(CCC[C@@]1(Cc2ccccc2)C(=O)N([C@H]2c3ccccc3C[C@H]2O)C[C@H]1O)Cc1ccc(-c2ccccc2)cc1)C(C)(C)C` yielded a Ki on Protease of 12 nM. The compound also registered an EC50 in series [1] of 850 nM. In addition, the half-maximal cytotoxic concentration (CC50) in the series on MT4 came to 15000 nM.
